Measurements reported in patent publication US5840728A, “Conformationally locked nucleoside analogs as antiherpetic agents” (priority 1997, dated 1998).
In brackets after ≈: the same amount, converted by molar mass. Several values for one entry are separate records, joined by “and”; a condition that tells them apart may be missing. Identical values can stand only once. Like-named read-outs stand apart in the source and are kept apart here.

Tests used:
[1] = Cytotoxicity in growing (rapidly dividing) HFF; assay type: cell-based, human; conditions: human, growing hff cells
[2] = Cytotoxicity in host cells / stationary cells (HFF); assay type: cell-based, human; conditions: human, hff cells
Text: (§1) ^d CC50 = cytotoxic concentration in μg/mL that produces 50%

[3] = test system: herpes viruses; experiment: Antiherpetic activity, overall; assay type: cell-based; conditions: in words
[4] = test system: HSV-2 (herpes simplex type 2); experiment: microbe, parasite or virus in culture
Text: (§2) Compounds 25 and 26 are (S)-methanocarba-T and (±)-(carba-T), respectively. (±)-carba-T was kindly provided by Dr. Y. Fulmer Shealy, Southern Research Institute, Birmingham, Ala. [drawing 5]

[5] = test system: HSV-1 (herpes simplex type 1); experiment: microbe, parasite or virus in culture
Text: as §2

[6] = test system: HCMV (human cytomegalovirus); experiment: microbe, parasite or virus in culture; assay type: cell-based
Text: | ^f plaque reduction assay.

[7] = test system: HCMV (human cytomegalovirus); experiment: microbe, parasite or virus in culture; assay type: cell-based; conditions: for EC50: Human betaherpesvirus 5, Table 5, HCMV, read-out: EC50
[8] = test system: HFF (human foreskin fibroblasts); experiment: Cytotoxicity in host cells / stationary cells (HFF); assay type: cell-based; conditions: Table 5; host cell not given
Text: as §1

[9] = test system: EBV (Epstein-Barr virus); experiment: microbe, parasite or virus in culture; assay type: cell-based; conditions: human gammaherpesvirus 4, EBV
Text: as §2

[10] = Human alphaherpesvirus 2, Table 5, HSV-2
[11] = Human alphaherpesvirus 1, Table 5, HSV-1

SMILES | SI (CC50/EC50) [4] | SI (CC50/EC50) [5] | CC50 ([2]; Table 5, host cell not given) | EC50 [4, 10] | EC50 [5, 11] | SI (CC50/EC50) [7] | EC50 [7] | further results
Cc1cn([C@@H]2C[C@H](CO)[C@@H](O)C2)c(=O)[nH]c1=O (relative stereo) [Compound 26, (±)-(carba-T), reference compound] | 1 | 1 | – | – | – | – | – | CC50 ([1]; rapidly dividing cells, read-out: CC50): 0.65 µg/mL (≈ 2.71 µM); CC50 ([2]; Table 4, HSV-1 and HSV-2 lines, host cell not given): > 10 µg/mL; CC50 ([2]; stationary cells): > 100 µg/mL; antiherpetic activity [3]: did not exhibit antiherpetic activity; EC50 ([4]; Human alphaherpesvirus 2, Table 4, HSV-2, plaques reduced by 50%): > 10 µg/mL; EC50 ([5]; Human alphaherpesvirus 1, Table 4, HSV-1, plaques reduced by 50%): > 10 µg/mL
Nc1ncnc2c1ncn2[C@@]12C[C@H](O)[C@@H](CO)[C@@H]1C2 [(S)-DMC-A, reference compound] | 1 | 1 | > 100 µg/mL | > 100 µg/mL | > 100 µg/mL | > 15.6 | 6.4 µg/mL (≈ 24.5 µM) | EC50 ([6]; Human betaherpesvirus 5, Table 5, HCMV, plaque reduction assay, read-out: EC50): 2.4 µg/mL (≈ 9.19 µM); SI (CC50/EC50) ([6]; human foreskin fibroblasts): > 41.7; activity against HCMV ([7]; in words): active against HCMV
Nc1ccn([C@@]23C[C@H](O)[C@@H](CO)[C@@H]2C3)c(=O)n1 [(S)-DMC-C, reference compound] | < 3.7 | < 3.7 | – | > 4 µg/mL | > 4 µg/mL | > 1.1 | 88.9 µg/mL (≈ 375 µM) | –
Nc1nc2c(ncn2[C@@]23C[C@H](O)[C@@H](CO)[C@@H]2C3)c(=O)[nH]1 [(S)-DMC-G, reference compound] | < 3.7 | < 3.7 | – | > 20 µg/mL | > 20 µg/mL | < 2.3 | > 20 µg/mL | –
O=c1ccn([C@@]23C[C@H](O)[C@@H](CO)[C@@H]2C3)c(=O)[nH]1 [(S)-DMC-U, reference compound] | < 3.0 | < 3.0 | 59.1 µg/mL (≈ 248 µM) | > 20 µg/mL | > 20 µg/mL | 1 | > 100 µg/mL | CC50 [8]: > 100 µg/mL
Nc1nc2c(ncn2COCCO)c(=O)[nH]1 [ACV, acyclovir, reference compound] | – | – | – | – | – | – | – | EC50 ([9]; Table 3, Daudi, positive control, read-out: Positive Control EC50): 0.1 µg/mL (≈ 0.444 µM); EC50 ([9]; Table 4, acyclovir control, read-out: ACV (EC50)): 0.1 µg/mL (≈ 0.444 µM); CC50 ([1]; Table 3, no virus, Growing HFF, positive control, read-out: Positive Control EC50 (line Growing HFF)): 40 µg/mL (≈ 178 µM); EC50 ([4]; Human alphaherpesvirus 2, read-out: ACV (EC50), Table 4, HSV-2, acyclovir control): 0.8 µg/mL (≈ 3.55 µM); EC50 ([4]; Human alphaherpesvirus 2, read-out: Positive Control EC50, Table 3, HSV-2, HFF, positive control): 4 µg/mL (≈ 17.8 µM); ACV (EC50) ([4]; Table 4, HSV-2, acyclovir control): 0.60 µg/mL; Control EC50 ([4]; Table 5, HSV-2, control): 1.8 µg/mL and 1.5 µg/mL; EC50 ([5]; Human alphaherpesvirus 1, read-out: ACV (EC50), Table 4, HSV-1, acyclovir control): 0.3 µg/mL (≈ 1.33 µM); EC50 ([5]; Human alphaherpesvirus 1, read-out: Positive Control EC50, Table 3, HSV-1, HFF, positive control): 0.8 µg/mL (≈ 3.55 µM); ACV (EC50) ([5]; Table 4, HSV-1, acyclovir control): 0.15 µg/mL; Control EC50 ([5]; Table 5, HSV-1, control): 0.20 µg/mL
